Measured values taken from patent US6814959B1, “UV radiation reflecting or absorbing agents, protecting against harmful UV radiation and reinforcing the natural skin barrier” (PharmaSol GmbH, priority 1999, dated 2004).

assay: UV absorption of diluted aqueous dispersions in UV spectrophotometer; assay type: physicochemical; conditions: pure lipid solution in 96% ethanol or aqueous surfactant solution of the same concentration; 250-450 nm
Excerpt: The UV-blocking action of the agent was studied by measuring the UV absorption of the lipid particle dispersion in a UV spectrophotometer. The criterion was the reduced permeability of the lipid particle dispersion for UV radiation in the wavelength range up 280 nm (UV C), from 280 nm to 315 nm (=UV B) und from 315 nm to 400 nm (UV A). A further test to quantify the UV-blocking action was the determination of the reduced permeability of particle films using the standard test with Transpore™ tape (B. L. Diffey, P. M. Farr, Sunscreen protection against UVB, UVA and blue light; an in vivo and in vitro comparison, British Journal of Dermatology 124, 1991, 258-263). The particle films were produced by spreading the particle dispersion on Transpore™ tape and then air-drying. The films thus produced were then glued onto one side of a quartz cuvette and the UV permeability was determined by a photometer. The measurements took place against the corresponding references, e.g. O/W emulsion with the same lipid content as well as UV blockers incorporated into the oil phase of an emulsion.
A lipid particle dispersion consisting of 10% (m/m) cetyl palmitate, 1.2% (m/m) polyglycerol methylglucose distearate (Tego Care 450) and water was produced by high pressure homogenization. The mixture of lipid and emulsifier was melted at 75° C. and dispersed in the aqueous solution with an Ultra-Turrax T25 with dispersing tool S25, Janke und Kunkel (8000 rpm for 1 minute). The obtained pre-emulsion was then homogenized with an APV Gaulin LAB 40 homogenizer at 500 bar with 3 cycles at 75° C. Lipid particles resulted with a PCS diameter of 221 nm and a polydispersity index of 0.06. For comparison, an emulsion system was produced in which the 10% cetyl palmitate was replaced by 10% Miglyol 812. The production parameter was dispersion with the Ultra-Turrax (8000 rpm for 1 minute). The UV-blocking action was examined with a Uvikon 940 spectrophotometer, Kontron, in the wavelength range of 250-450 nm. […]

absorption over the whole measurement range	Compound
did not absorb	polyglycerol methylglucose distearate [Tego Care 450]
did not absorb	CCCCCCCCCCCCCCCCCCO [stearyl alcohol]
did not absorb	CCCCCCCCCCCCCCCCOC(=O)CCCCCCCCCCCCCCC [cetyl palmitate]
